In patent US20250304610A1, “TREHALOSE-BASED SURFACTANTS” (priority 2022, published 2025):

Tests used:
[1] = tested on: SARS-CoV-2 spike-expressing HEK293 cells; type: cell-based
antibody = experiment: Antibody aggregation assessed by DLS after freeze-drying and storage; type: physicochemical; conditions: antibody 1 mg/mL, reconstituted with MilliQ water
Method: 500 uL of 1 mg/mL antibody formulations were placed in a vial prior to deep-freeze in liquid nitrogen. The frozen samples were placed directly in the freeze-dryer. After 24 hr, the lyophilized samples were stored in a fridge at 4° C. for 7 or 28 days. The sample were then reconstituted with addition of MilliQ® water before assessing their stability by DLS and cell binding assays.
The aggregation of antibody was assessed by dynamic light scattering (DLS) operating at 25° C. The measurements were done at different timepoints during storage at […] and right after nebulization.
The mean hydrodynamic diameter by intensities of the monomer was distributed at d=10 nm while aggregates was distributed at a d >10 nm.
The addition of 5.6 mM C16Tre1S and C8Tre1S trehalose surfactants as cryoprotectant was assessed on 1 mg/mL antibody formulations. The samples were first deep-frozen in liquid nitrogen before drying for 24 hr. The lyophilized samples were stored in a fridge for 0, 7 or 28 days before reconstitution with addition of MilliQ® water. The conformation and functionality of antibody after the process were assessed by DLS and cell binding assays respectively. The results were compared to antibody formulated in PBS only and formulated with standard cryoprotectants such as trehalose (5 wt % and 5.6 mM) and Tween 80 (5.6 mM).

Row | SMILES | antibody binding to spike-expressing HEK293 cells after lyophilization (fluorescence signal) [1] | antibody aggregation after freeze-drying (DLS) (antibody; excipient 5.6 mM) | antibody aggregation after freeze-drying (DLS) (antibody; excipient 5 wt %) | antibody binding to Spike protein after nebulization of the reconstituted formulation [1]
1 | OC[C@H]1O[C@H](O[C@H]2O[C@H](CO)[C@@H](O)[C@H](O)[C@H]2O)[C@H](O)[C@@H](O)[C@@H]1O [Trehalose] | significant decrease of antibody binding | aggregations were observed | Comparable results | 
2 | CCCCCCCC/C=C\CCCCCCCC(=O)OCCOCC(OCCO)C1OCC(OCCO)C1OCCO (stereo not drawn) [Tween 80] | Comparable results | Comparable results |  | at the same level as before nebulization
